In US4585866A, “Treatment of migraine with substituted tropyl benzoate derivatives” (Merrell Dow Pharmaceuticals Inc., priority 1984, dated 1986):

What was measured:
LD50 in the rat = settings: in vivo, iv
mouse = assay: LD50 in the mouse; type: in vivo; settings: as shown by LD50 values in the mouse and rat
LD50 in the mouse = type: in vivo; settings: in vivo, mouse
[1] = test system: Von Bezold-Jarisch Reflex (5-HT M-receptor); assay: Antagonism of the Von Bezold-Jarisch reflex evoked by 5-HT in the anaesthetized rat; type: in vivo, rat (male Sprague-Dawley); settings: comparison in words, i.v.
Source text: The activity of these compounds against 5-HT can be assessed in vivo by measurement of the effect of the compound on the Von Bezold-Jarisch Reflex induced by 5-HT injected intravenously into the rat (A. S. Paintal, Physiol. Rev. 53, 159-227, 1973). The transient caridac slowing arises from an increased afferent vagus activity arising from stimulation by 5-HT of sensory afferent fibres in and around the heart (see Example 3).
Antagonism of the Von Bezold-Jarisch reflex evoked by 5-HT in the anaesthetized rat was measured for tropyl 3,5-dimethoxybenzoate (A), tropyl 3,5-dimethylbenzoate (B) and tropyl 3,5-dichlorobenzoate (C) using the following method.
Male Sprague-Dawley rats weighing 250-300 g are anaesthetized with urethane, 1.25 g/kg injected intraperitoneally and set up for recording blood pressure and heart rate as described in J. R. Fozard et al, J. Cardiovas. Pharmacol. 2, 229-245 (1980). A submaximal dose of 5-HT ([…]) is given repeatedly into the cannulated jugular vein and changes in heart rate are quantified. Antagonists are given intravenously and the doses required to just inhibit the response to 5-HT (threshold dose) or to inhibit the response to 5-HT by 50% (ED50) are determined.

guinea-pig taenia caeci = assay: Inhibition of standard response to calcium, guinea-pig taenia caeci; type: cell-based; settings: Cavia porcellus; guinea-pig taenia caeci in potassium-depolarized Tyrode solution, agonist calcium; read-out: Concentration to inhibit standard response to stimulants by 50% (IC50)
Source text: (§1) A selection of classical in vitro pharmacological test preparations (rat uterus, rat fundus, guinea-pig ileum, guinea-pig taenia caeci) were set up according to well-established procedures (see "Pharmacological Experiments on Isolated Preparations" Staff of the Department of Pharmacology, University of Edinburgh, Livingstone, Edinburgh 1970). Various spasmogens were used to elicit contraction of these tissues though mechanisms other than the 5-HT "M" receptor. The concentrations of tropyl 3,5-dimethoxybenzoate (A), tropyl 3,5-dimethylbenzoate (B) and tropyl 3,5-dichlorobenzoate (C) which reduced the effects of a submaximal dose of agonist by 50% were determined (IC50). The results are set forth in Table VI below in which the compounds are identified by the reference letters used above.
*In potassiumdepolarized Tyrode solution

5-HT M-receptor [2] = target: T1, 5-HT M-receptor (Oryctolagus cuniculus, UniProt A0A5F9C9J3); assay: pA2 against 5-HT in isolated rabbit heart; type: cell-based; settings: isolated rabbit heart; negative log of molar concentration of antagonist reducing effect of twice the ED50 of 5-HT to that of the ED50; read-out: pA2 5-HT (converted)
T1 construct: determining their pA2 values in the isolated rabbit heart; from tissue; host or cells: isolated rabbit heart (receptor on the cardiac neurones)
T1 sequence (A0A5F9C9J3 1-494): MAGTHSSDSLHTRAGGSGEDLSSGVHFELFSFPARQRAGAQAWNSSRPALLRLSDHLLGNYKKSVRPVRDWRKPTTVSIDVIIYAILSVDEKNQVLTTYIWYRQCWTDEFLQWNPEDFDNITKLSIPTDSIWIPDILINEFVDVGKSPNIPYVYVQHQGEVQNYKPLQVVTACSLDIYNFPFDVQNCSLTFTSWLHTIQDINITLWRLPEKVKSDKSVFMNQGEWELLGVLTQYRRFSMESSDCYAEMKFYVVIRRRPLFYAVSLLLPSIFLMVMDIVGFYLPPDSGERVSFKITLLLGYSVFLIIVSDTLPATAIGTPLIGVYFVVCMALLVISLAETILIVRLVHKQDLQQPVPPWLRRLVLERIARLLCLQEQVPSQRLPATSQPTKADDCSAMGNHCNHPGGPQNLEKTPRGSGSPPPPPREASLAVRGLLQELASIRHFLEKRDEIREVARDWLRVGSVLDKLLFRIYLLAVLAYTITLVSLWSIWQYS
Protocol: (§2) The activity of the compounds against 5-HT can be assessed by determining their pA2 values in the isolated rabbit heart as described by J. R. Fozard et al, Eur. J. Pharmacol., 59, 195-210 (1979). In the method described, the molar concentration of antagonist which reduces the effects of twice the ED50 of 5-HT to that of the ED50 in the absence of antagonist is determined. The pA2 value is the negative logarithm of said molar concentrations.

[3] = target: T2, rabbit heart (5-HT M receptor) (Oryctolagus cuniculus, UniProt A0A5F9C9J3); assay: Inhibition of standard response to 5-HT, rabbit heart; type: cell-based; settings: rabbit heart, agonist 5-HT; read-out: Concentration to inhibit standard response to stimulants by 50% (IC50)
T2 construct: RABBIT HEART; from tissue; host or cells: rabbit heart
T2 sequence (A0A5F9C9J3 1-494): T1 sequence (A0A5F9C9J3 1-494)
Protocol: as §2, §1

guinea-pig ileum = assay: Inhibition of standard response to carbachol, guinea-pig ileum; type: cell-based; settings: Cavia porcellus, carbachol agonist instead of acetylcholine, read-out: Concentration to inhibit standard response to stimulants by 50% (IC50)
Source text: as §1
**Carbachol agonist instead of acetylcholine

5-HT M-receptor [4] = target: T1, 5-HT M-receptor; settings: cited from earlier work
acute migraine attack = settings: slow intravenous injection, 10 mg; J. B. Hughes, Med. J. Aust. 1977; cited from earlier work

Compound	LD50 (LD50 in the rat) [mg/kg]	toxicity in words (mouse)	LD50 (LD50 in the mouse; ip) [mg/kg]	LD50 (LD50 in the mouse; iv) [mg/kg]	LD50 (LD50 in the mouse; oral) [mg/kg]	potency relative to metoclopramide [1]	IC50 (guinea-pig taenia caeci) [µM]	Kb (5-HT M-receptor [2]) [µM]	IC50 [3] [µM]	IC50 (guinea-pig ileum) [µM]	potency as 5-HT M-receptor antagonist (5-HT M-receptor [4]; literature)	pA2 value (5-HT) (5-HT M-receptor [4]; reported by J. R. Fozard et al, Eur. J. Pharmacol. 1979 / 1978)	relief of acute migraine attack (acute migraine attack)
Cc1cc(C)cc(C(=O)O[C@H]2C[C@H]3CC[C@@H](C2)N3C)c1 [tropyl 3,5-dimethylbenzoate]	9	relatively non-toxic	47	17	116	many times more potent than metoclopramide	34.2	0.001	0.00103	9.59			
CCN(CC)CCNC(=O)c1cc(Cl)c(N)cc1OC [metoclopramide]											potent 5-HT M-receptor antagonist	7.2	immediate relief of acute migraine attack
